The test system of data set [1] is A375R cells. Nature of the data set: MTT cell viability assay, vemurafenib-resistant A375R. The data set is classed as cell-based. The note with it: for IC50: A375R, MTT, 72 h. As for the experimental part: (§1) A375, MRC-5, and HaCaT cell lines were obtained from the American Type Culture Collection (ATCC). 518A2 cell line was kindly provided by Dr. […]ć. All cell lines were cultured in RPMI 1640 medium supplemented with 2 g/L glucose, 10% fetal bovine serum (FBS), and antibiotics. […] Cell viability was assessed using the MTT assay (Sigma Aldrich, #M5655). […] After 72 h of incubation, absorbance was measured at 570 nm using a Multiskan SkyHigh microplate reader (Thermo Fisher Scientific, Helsinki, Finland). Values were corrected by subtracting the absorbance measured in wells containing cell-free medium with tested compounds.
(Formazan colour is commonly taken as a measure of viable cells.)

Data set [2] is described as follows: Stability in biological media (HPLC). The data set is classed as physicochemical. As to conditions: room temperature. On the procedure: To test stability in biological media, three best drug candidates (compounds 1, 3, and 8) were dissolved in 0.05 M hydrochloric acid, pH 2.0, and phosphate buffer, pH 5.5 (prepared by dissolving sodium dihydrogen phosphate dihydrate and disodium hydrogen phosphate in distilled water, followed by the adjustment of pH by ortho-phosphoric acid) and RPMI 1640 medium. Stock solutions in DMSO (2 mg/mL) were diluted by corresponding medium to obtain working solutions (0.02 mg/mL) and incubated at room temperature in 0.05 M hydrochloric acid (2 h), phosphate buffer pH 5.5 (5 h), and RPMI 1640 medium (72 h). Compounds were injected freshly prepared, and after incubation time, the differences in concentrations was expressed as percentages. Quantification was performed on Dionex Ultimate 3000 HPLC system (Thermo Fisher Scientific, Dreieich, Germany), consisting of Dionex Ultimate 3000 quaternary pump, autosampler, and DAD detector. The column was Zorbax Extend C18 (150 mm × 4.6 mm, 5 µm particle size). The mobile phase was 0.1% formic acid/acetonitrile = 50/50 (compound 1) and 60/40 (compounds 3 and 8). The column temperature was adjusted to 25 °C, and the flow rate was 0.5 mL/min. The detection was performed at 300 nm.

The test system of data set [3] is 518A2 cells. Kind of data set: MTT cell viability assay, 518A2. The note with it: Homo sapiens; 518A2, MTT, 72 h. Format: cell-based. As for the experimental part: as §1
In data set [4] the test system is MRC-5 (fetal fibroblasts). Nature of the data set: MTT cell viability assay, MRC-5. Format: cell-based. As to conditions: Homo sapiens, MRC5; MRC-5, MTT, 72 h. On the procedure:
as §1

Data set [5] has as its system A375 cells. Nature of the data set: Mitochondrial morphology staining (MitoTracker Green FM). Format: cell-based. The note with it: A375, 25 μM, 24 h. As for the experimental part:
For imaging of the mitochondrial morphology in live cells, A375 cells seeded in 96-well optical bottom plates, as above, were treated for 24 h with 25 μM telmisartan, compound 1, 3, or 8. Treatment was washed away, and cells were stained with 500 nM MitoTracker Green FM (#9074, Cell signaling Technology, Danvers, MA, USA) in RPMI without serum for 30 min at 37 °C. Cells were imaged on Zeiss PALM MicroBeam Axio Observer Z1 microscope (Carl Zeiss MicroImaging GmbH, Oberkochen, Germany) with Zeiss LD Plan-Neofluar 20×/0.4 Korr, ∞/0–1.5 mm lens and AxioVision software. Mitochondrial shape was quantified in images from two biological experimental repeats, in three random fields for each condition, using Image J Analyze Particles function. Images were first processed to 8-bit binary, and circularity and aspect ratio (major axis/minor axis) were calculated and plotted with Prism 9 (GraphPad Software, LLC, Boston, MA, USA). Treatments were compared with untreated control using one-way ANOVA and Dunnett’s multiple comparisons test. p < 0.05 was considered statistically significant.

Data set [6] has as its system A375 cells. Kind of data set: Cellular uptake and subcellular distribution by LC-MS/MS. Format: cell-based. The note with it: A375, 25 μM, 24 h; for Compound accumulation normalized to telmisartan, Chromatin Bound: chromatin-bound nuclear fraction; for Compound accumulation normalized to telmisartan, Cytoplasm: cytoplasmic fraction; for Compound accumulation normalized to telmisartan, Cytoskeleton: cytoskeletal fraction; for Compound cell accumulation normalized to telmisartan, Whole Lysate: μmol compound per μg cell protein normalized to telmisartan. On the procedure: Cells were then trypsinized, washed with PBS and pelleted. For whole cell lysates, cell pellet was dissolved in RIPA buffer on ice. Fractions and whole cell lysates were stored at -80 °C until use. Protein concentration of lysates was determined with Pierce BCA Protein assay kit (Thermo Fisher #23225), and cell accumulation was calculated as μmol of compound per μg of cell protein and normalized to telmisartan. Concentrations of telmisartan and its derivatives were determined using liquid chromatography-tandem mass spectrometry (LC-MS/MS) method in positive HESI mode. The analysis was performed on UHPLC chromatograph […] (Thermo Fisher Scientific Inc., Madison, WI, USA), coupled to a triple quadrupole mass spectrometer TSQ Quantum Access MAX (Thermo Fisher Scientific Inc., Madison, WI, USA) with heated electrospray ionization (HESI) interface. The column was Zorbax Extend C18 (150 mm × 4.6 mm, 5 μm particle size). […] Experiment was repeated twice.

Data set [7] relates to HaCaT (human keratinocytes). Nature of the data set: MTT cell viability assay, HaCaT. The data set is classed as cell-based. The note with it: 72 h. On the procedure:
as §1

The test system of data set [8] is A375 cells. Nature of the data set: Cell cycle distribution (PI, flow cytometry), A375. The data set is classed as cell-based. The note with it: A375, 25 µM, 72 h. As for the experimental part:
(§2) A375 and A375R cells were seeded in 6-well plates at a density of 150,000 cells per well. On the following day, the cells were treated with 25 µM concentrations of compounds 1, 3, and 8, as well as telmisartan. After 72 h of incubation, the cells were harvested using trypsin, washed with phosphate-buffered saline (PBS), fixed in ethanol, and stored at −20 °C until analysis. Ethanol-fixed cells were treated with RNase A (1 mg/mL) and stained with propidium iodide (PI; 400 µg/mL). A total of 20,000 events were recorded per sample. Quantitative analysis of the cell cycle phase distribution was performed by flow cytometry using a FACSCalibur flow cytometer (Becton Dickinson, San Jose, CA, USA) and BD CellQuest Pro Version 5.2.1 software. Experiment was performed three times. Cells under treatment were compared to controls for each cell phase separately with one-way ANOVA and Dunnett’s multiple comparison tests. p < 0.05 was considered statistically significant.

Data set [9] relates to A375R cells. Kind of data set: Cell cycle distribution (PI, flow cytometry), A375R. Format: cell-based. The note with it: 25 µM, 72 h. As for the experimental part: as §2
In general terms: Flow cytometry measures light scatter and fluorescence of single cells or particles in a stream.

In the case of `CCCc1nc2c(C)cc(-c3nc4ccccc4n3C)cc2n1Cc1ccc(-c2ccccc2C(=O)NC(Cc2ccc(O)cc2)C(=O)O)cc1` (stereo not shown) [compound 3, 2-{[4′-(1,7′-dimethyl-2′-propyl-1H-[2,5′]bibenzoimidazolyl-3′-ylmethyl)-biphenyl-2-carbonyl]-amino}-3-(4-hydroxy-phenyl)-propionic acid], the IC50 in data set [1] was 21.1 ± 6.31 µM; in data set [3] it was 31 ± 2.38 µM; in data set [4], 50.74 ± 0.28 µM; in [7], 63.46 ± 0.23 µM. Besides, in data set [2] (phosphate buffer pH 5.5, 5 h), the “Change in concentration after incubation in phosphate buffer pH 5.5” value was 3.49%. Moreover, the Mitochondrial network morphology result in data set [5] is listed as “disrupted the mitochondrial network to a greater extent than telmisartan”. Also, in data set [6], the “Compound accumulation normalized to telmisartan, Chromatin Bound” value was 0.52. Also, the “Compound accumulation normalized to telmisartan, Cytoplasm” value in data set [6] was found to be 3.64. Besides, the “Compound accumulation normalized to telmisartan, Cytoskeleton” value in [6] is 0.69. Besides, the “Compound accumulation normalized to telmisartan, Membrane” value in data set [6] (membrane fraction) was determined as 4.62. In [6], the “Compound cell accumulation normalized to telmisartan, Whole Lysate” value came out at 4.57. The Cell cycle distribution result is on record as “increased accumulation of cells in the subG1 phase, albeit not statistically significant” in data set [8] and “cell cycle profile comparable to that of the untreated control cells” in [9].
Consider `CCCc1nc2c(C)cc(-c3nc4ccccc4n3C)cc2n1Cc1ccc(-c2ccccc2C(=O)NC(Cc2ccccc2)C(=O)O)cc1` (stereo not shown) [compound 8, 2-{[4′-(1,7′-dimethyl-2′-propyl-1H-[2,5′]bibenzoimidazolyl-3′-ylmethyl)-biphenyl-2-carbonyl]-amino}-3-phenyl-propionic acid], for which, in data set [1] (A375R versus normal cell lines (HaCaT, MRC-5), from IC50 values), the Selectivity is given as greater than 3.50. In addition, the IC50 in data set [1] amounted to 8.84 ± 1.24 µM; in [3], 28.4 ± 2.66 µM; in [4] it was 31.5 ± 5.87 µM; in [7], 70.8 ± 6.99 µM. In addition, the “Change in concentration after incubation in 0.05 M hydrochloric acid” value in [2] (0.05 M HCl, pH 2.0, 2 h) is 3.04%. Further, in data set [2] (RPMI 1640 medium, 72 h), the “Change in concentration after incubation in RPMI 1640 medium” value was 2.00%. Further, the Mitochondrial network morphology result in data set [5] was “dramatic fission and clumping of mitochondria”. The “Compound accumulation normalized to telmisartan, Chromatin Bound” value in [6] was found to be 11.90. Also, the “Compound accumulation normalized to telmisartan, Cytoplasm” value in data set [6] amounted to 11.17. For the same compound, the “Compound accumulation normalized to telmisartan, Cytoskeleton” value in data set [6] is on record as 7.44. In [6] (membrane fraction), the “Accumulation in the membrane fraction” value is 26.814 µmol/L. Further, the “Compound cell accumulation normalized to telmisartan, Whole Lysate” value in data set [6] was 4.41. Further, the Cell cycle distribution entry was “increased accumulation of cells in the subG1 phase, albeit not statistically significant” in [8] and “cell accumulation in the G0/G1 phase” in data set [9].

The IC50 is the concentration that gives 50% inhibition. The low end stands for inhibition by little substance, the high end for a need for much substance.
